Converted amounts (≈) assume the structure as drawn.
Legend:
[1] = test system: M. tuberculosis XDR (resistant to isoniazid, rifampicin, amikacin and moxifloxacin); assay: microbe, parasite or virus in culture; format: cell-based; settings: Mycobacterium tuberculosis, 504 h, read-out: MIC M. tb XDR
[2] = test system: M. tuberculosis MDR (resistant to isoniazid and rifampicin); assay: microbe, parasite or virus in culture; format: cell-based; settings: Mycobacterium tuberculosis, 504 h, read-out: MIC M. tb MDR

C[C@]1(COc2ccccc2-n2cc(-c3ccc(OC(F)(F)F)cc3)nn2)Cn2cc([N+](=O)[O-])nc2O1 [IA23, (R)-2-{2-[4-(4-trifluoromethoxyphenyl)-1H-1,2,3-triazol-1-yl]phenoxymethyl}-2,3-dihydro-2-methyl-6-nitroimidazo[2,1-b]oxazole]
MIC [1]: 4 µg/mL (≈ 7.96 µM)
MIC [2]: 4 µg/mL (≈ 7.96 µM)

C[C@]1(COc2ccccc2-n2cc(-c3ccc(F)cc3F)nn2)Cn2cc([N+](=O)[O-])nc2O1 [IA24, (R)-2-{2-[4-(2,4-difluorophenyl)-1H-1,2,3-triazol-1-yl]phenoxymethyl}-2,3-dihydro-2-methyl-6-nitroimidazo[2,1-b]oxazole]
MIC [1]: 1 µg/mL (≈ 2.2 µM)
MIC [2]: 1 µg/mL (≈ 2.2 µM)

C[C@]1(COc2ccc(-n3cc(COc4ccc(OC(F)(F)F)cc4)nn3)cc2)Cn2cc([N+](=O)[O-])nc2O1 [IA25]
MIC [1]: 0.12 µg/mL (≈ 0.225 µM)
MIC [2]: 0.12 µg/mL (≈ 0.225 µM)

C[C@]1(COc2ccc(-n3cc(COc4ccc(F)cc4)nn3)cc2)Cn2cc([N+](=O)[O-])nc2O1 [IA26]
MIC [1]: 0.5 µg/mL (≈ 1.07 µM)
MIC [2]: 0.5 µg/mL (≈ 1.07 µM)

C[C@]1(COc2ccc(-n3cc(COc4ccc(C(F)(F)F)cc4)nn3)cc2)Cn2cc([N+](=O)[O-])nc2O1 [IA27]
MIC [1]: 0.25 µg/mL (≈ 0.484 µM)
MIC [2]: 0.25 µg/mL (≈ 0.484 µM)

C[C@]1(COc2ccc(-n3cc(COc4ccccc4F)nn3)cc2)Cn2cc([N+](=O)[O-])nc2O1 [IA28]
MIC [1]: 0.12 µg/mL (≈ 0.257 µM)
MIC [2]: 0.12 µg/mL (≈ 0.257 µM)

Cc1ccc(OCc2cn(-c3ccc(OC[C@@]4(C)Cn5cc([N+](=O)[O-])nc5O4)cc3)nn2)cc1 [IA29]
MIC [1]: 32 µg/mL (≈ 69.2 µM)
MIC [2]: 32 µg/mL (≈ 69.2 µM)

CC(C)c1ccc(OCc2cn(-c3ccc(OC[C@@]4(C)Cn5cc([N+](=O)[O-])nc5O4)cc3)nn2)cc1 [IA30]
MIC [1]: 32 µg/mL (≈ 65.2 µM)
MIC [2]: 32 µg/mL (≈ 65.2 µM)

CCc1ccc(OCc2cn(-c3ccc(OC[C@@]4(C)Cn5cc([N+](=O)[O-])nc5O4)cc3)nn2)cc1 [IA31]
MIC [1]: 0.25 µg/mL (≈ 0.525 µM)
MIC [2]: 0.25 µg/mL (≈ 0.525 µM)

CCC(C)c1ccc(OCc2cn(-c3ccc(OC[C@@]4(C)Cn5cc([N+](=O)[O-])nc5O4)cc3)nn2)cc1 (stereo partly drawn) [IA32]
MIC [1]: 0.12 µg/mL (≈ 0.238 µM)
MIC [2]: 0.12 µg/mL (≈ 0.238 µM)

C[C@]1(COc2cccc(-n3cc(COc4ccc(OC(F)(F)F)cc4)nn3)c2)Cn2cc([N+](=O)[O-])nc2O1 [IA33]
MIC [1]: 0.12 µg/mL (≈ 0.225 µM)
MIC [2]: 0.12 µg/mL (≈ 0.225 µM)

C[C@]1(COc2cccc(-n3cc(COc4ccc(F)cc4)nn3)c2)Cn2cc([N+](=O)[O-])nc2O1 [IA34]
MIC [1]: 0.12 µg/mL (≈ 0.257 µM)
MIC [2]: 0.12 µg/mL (≈ 0.257 µM)

C[C@]1(COc2cccc(-n3cc(COc4ccc(C(F)(F)F)cc4)nn3)c2)Cn2cc([N+](=O)[O-])nc2O1 [IA35]
MIC [1]: 2 µg/mL (≈ 3.87 µM)
MIC [2]: 2 µg/mL (≈ 3.87 µM)

C[C@]1(COc2cccc(-n3cc(COc4ccccc4F)nn3)c2)Cn2cc([N+](=O)[O-])nc2O1 [IA36]
MIC [1]: 2 µg/mL (≈ 4.29 µM)
MIC [2]: 2 µg/mL (≈ 4.29 µM)

Cc1ccc(OCc2cn(-c3cccc(OC[C@@]4(C)Cn5cc([N+](=O)[O-])nc5O4)c3)nn2)cc1 [IA37]
MIC [1]: 4 µg/mL (≈ 8.65 µM)
MIC [2]: 4 µg/mL (≈ 8.65 µM)

CC(C)c1ccc(OCc2cn(-c3cccc(OC[C@@]4(C)Cn5cc([N+](=O)[O-])nc5O4)c3)nn2)cc1 [IA38]
MIC [1]: 4 µg/mL (≈ 8.15 µM)
MIC [2]: 4 µg/mL (≈ 8.15 µM)

C[C@]1(COc2ccccc2-n2cc(COc3ccc(OC(F)(F)F)cc3)nn2)Cn2cc([N+](=O)[O-])nc2O1 [IA39]
MIC [1]: 1 µg/mL (≈ 1.88 µM)
MIC [2]: 1 µg/mL (≈ 1.88 µM)

C[C@]1(COc2ccccc2-n2cc(COc3ccc(F)cc3)nn2)Cn2cc([N+](=O)[O-])nc2O1 [IA40]
MIC [1]: 4 µg/mL (≈ 8.58 µM)
MIC [2]: 4 µg/mL (≈ 8.58 µM)

C[C@]1(COc2ccccc2-n2cc(COc3ccc(C(F)(F)F)cc3)nn2)Cn2cc([N+](=O)[O-])nc2O1 [IA41]
MIC [1]: 2 µg/mL (≈ 3.87 µM)
MIC [2]: 2 µg/mL (≈ 3.87 µM)

C[C@]1(COc2ccccc2-n2cc(COc3ccccc3F)nn2)Cn2cc([N+](=O)[O-])nc2O1 [IA42]
MIC [1]: 2 µg/mL (≈ 4.29 µM)
MIC [2]: 2 µg/mL (≈ 4.29 µM)

C[C@]1(COc2ccc(-n3nnnc3-c3ccccc3)cc2)Cn2cc([N+](=O)[O-])nc2O1 [IB1, (R)-2-{4-[5-phenyl-1H-tetrazol-1-yl]phenoxymethyl}-2,3-dihydro-2-methyl-6-nitroimidazo[2,1-b]oxazole]
MIC [1]: 2 µg/mL (≈ 4.77 µM)
MIC [2]: 2 µg/mL (≈ 4.77 µM)

C[C@]1(COc2ccc(-n3nnnc3-c3ccc(OC(F)(F)F)cc3)cc2)Cn2cc([N+](=O)[O-])nc2O1 [IB2, (R)-2-{4-[5-(4-trifluoromethoxyphenyl)-1H-tetrazol-1-yl]phenoxymethyl}-2,3-dihydro-2-methyl-6-nitroimidazo[2,1-b]oxazole]
MIC [1]: 2 µg/mL (≈ 3.97 µM)
MIC [2]: 2 µg/mL (≈ 3.97 µM)

Cc1ccc(-c2nnnn2-c2ccc(OC[C@@]3(C)Cn4cc([N+](=O)[O-])nc4O3)cc2)cc1 [IB3, (R)-2-{4-[5-(4-methylphenyl)-1H-tetrazol-1-yl]phenoxymethyl}-2,3-dihydro-2-methyl-6-nitroimidazo[2,1-b]oxazole]
MIC [1]: 4 µg/mL (≈ 9.23 µM)
MIC [2]: 4 µg/mL (≈ 9.23 µM)

C[C@]1(COc2ccc(-n3nnnc3-c3ccc(F)cc3)cc2)Cn2cc([N+](=O)[O-])nc2O1 [IB4, (R)-2-{4-[5-(4-fluorophenyl)-1H-tetrazol-1-yl]phenoxymethyl}-2,3-dihydro-2-methyl-6-nitroimidazo[2,1-b]oxazole]
MIC [1]: 4 µg/mL (≈ 9.15 µM)
MIC [2]: 4 µg/mL (≈ 9.15 µM)

C[C@]1(COc2ccc(-n3nnnc3-c3ccc(C(F)(F)F)cc3)cc2)Cn2cc([N+](=O)[O-])nc2O1 [IB5, (R)-2-{4-[5-(4-trifluoromethylphenyl)-1H-tetrazol-1-yl]phenoxymethyl}-2,3-dihydro-2-methyl-6-nitroimidazo[2,1-b]oxazole]
MIC [1]: 1 µg/mL (≈ 2.05 µM)
MIC [2]: 1 µg/mL (≈ 2.05 µM)

CCc1ccc(-c2nnnn2-c2ccc(OC[C@@]3(C)Cn4cc([N+](=O)[O-])nc4O3)cc2)cc1 [IB6, (R)-2-{4-[5-(4-ethylphenyl)-1H-tetrazol-1-yl]phenoxymethyl}-2,3-dihydro-2-methyl-6-nitroimidazo[2,1-b]oxazole]
MIC [1]: 2 µg/mL (≈ 4.47 µM)
MIC [2]: 2 µg/mL (≈ 4.47 µM)

C[C@]1(COc2ccc(-n3nnnc3Oc3ccc(F)cc3)cc2)Cn2cc([N+](=O)[O-])nc2O1 [IB7, (R)-2-{4-[5-(4-fluorophenoxy)-1H-tetrazol-1-yl]phenoxymethyl}-2,3-dihydro-2-methyl-6-nitroimidazo[2,1-b]oxazole]
MIC [1]: 2 µg/mL (≈ 4.41 µM)
MIC [2]: 2 µg/mL (≈ 4.41 µM)

C[C@]1(COc2ccc(-n3nnnc3Oc3ccc(C(F)(F)F)cc3)cc2)Cn2cc([N+](=O)[O-])nc2O1 [IB8, (R)-2-{4-[5-(4-trifluoromethylphenoxy)-1H-tetrazol-1-yl]phenoxymethyl}-2,3-dihydro-2-methyl-6-nitroimidazo[2,1-b]oxazole]
MIC [1]: 4 µg/mL (≈ 7.95 µM)
MIC [2]: 4 µg/mL (≈ 7.95 µM)

Cc1ccc(Oc2nnnn2-c2ccc(OC[C@@]3(C)Cn4cc([N+](=O)[O-])nc4O3)cc2)cc1 [IB9, (R)-2-{4-[5-(4-methylphenoxy)-1H-tetrazol-1-yl]phenoxymethyl}-2,3-dihydro-2-methyl-6-nitroimidazo[2,1-b]oxazole]
MIC [1]: 4 µg/mL (≈ 8.9 µM)
MIC [2]: 4 µg/mL (≈ 8.9 µM)

C[C@]1(COc2ccc(-n3nnnc3Oc3ccc(OC(F)(F)F)cc3)cc2)Cn2cc([N+](=O)[O-])nc2O1 [IB10, (R)-2-{4-[5-(4-trifluoromethoxyphenoxy)-1H-tetrazol-1-yl]phenoxymethyl}-2,3-dihydro-2-methyl-6-nitroimidazo[2,1-b]oxazole]
MIC [1]: 1 µg/mL (≈ 1.93 µM)
MIC [2]: 1 µg/mL (≈ 1.93 µM)

C[C@]1(COc2ccc(-c3cc(-c4ccccc4)on3)cc2)Cn2cc([N+](=O)[O-])nc2O1 [IC1, (R)-2-{4-[5-phenylisoxazol-3-yl]phenoxymethyl}-2,3-dihydro-2-methyl-6-nitroimidazo[2,1-b]oxazole]
MIC [1]: 0.12 µg/mL (≈ 0.287 µM)
MIC [2]: 0.12 µg/mL (≈ 0.287 µM)

CCc1ccc(-c2cc(-c3ccc(OC[C@@]4(C)Cn5cc([N+](=O)[O-])nc5O4)cc3)no2)cc1 [IC2, (R)-2-{4-[5-(4-ethylphenyl)isoxazol-3-yl]phenoxymethyl}-2,3-dihydro-2-methyl-6-nitroimidazo[2,1-b]oxazole]
MIC [1]: 2 µg/mL (≈ 4.48 µM)
MIC [2]: 2 µg/mL (≈ 4.48 µM)

C[C@]1(COc2ccc(-c3cc(-c4ccc(F)cc4F)on3)cc2)Cn2cc([N+](=O)[O-])nc2O1 [IC3, (R)-2-{4-[5-(2,4-difluorophenyl)isoxazol-3-yl]phenoxymethyl}-2,3-dihydro-2-methyl-6-nitroimidazo[2,1-b]oxazole]
MIC [1]: 0.25 µg/mL (≈ 0.55 µM)
MIC [2]: 0.25 µg/mL (≈ 0.55 µM)

C[C@]1(COc2ccc(-c3cc(-c4ccccc4F)on3)cc2)Cn2cc([N+](=O)[O-])nc2O1 [IC4, (R)-2-{4-[5-(2-fluorophenyl)isoxazol-3-yl]phenoxymethyl}-2,3-dihydro-2-methyl-6-nitroimidazo[2,1-b]oxazole]
MIC [1]: 2 µg/mL (≈ 4.58 µM)
MIC [2]: 2 µg/mL (≈ 4.58 µM)

C[C@]1(COc2ccc(-c3cc(-c4ccc(C(F)(F)F)cc4)on3)cc2)Cn2cc([N+](=O)[O-])nc2O1 [IC5, (R)-2-{4-[5-(4-trifluoromethylphenyl)isoxazol-3-yl]phenoxymethyl}-2,3-dihydro-2-methyl-6-nitroimidazo[2,1-b]oxazole]
MIC [1]: 1 µg/mL (≈ 2.06 µM)
MIC [2]: 1 µg/mL (≈ 2.06 µM)

Cc1ccc(-c2cc(-c3ccc(OC[C@@]4(C)Cn5cc([N+](=O)[O-])nc5O4)cc3)no2)cc1 [IC6, (R)-2-{4-[5-(4-methylphenyl)isoxazol-3-yl]phenoxymethyl}-2,3-dihydro-2-methyl-6-nitroimidazo[2,1-b]oxazole]
MIC [1]: 1 µg/mL (≈ 2.31 µM)
MIC [2]: 1 µg/mL (≈ 2.31 µM)

COc1ccc(-c2cc(-c3ccc(OC[C@@]4(C)Cn5cc([N+](=O)[O-])nc5O4)cc3)no2)cc1 [IC7, (R)-2-{4-[5-(4-methoxyphenyl)isoxazol-3-yl]phenoxymethyl}-2,3-dihydro-2-methyl-6-nitroimidazo[2,1-b]oxazole]
MIC [1]: 1 µg/mL (≈ 2.23 µM)
MIC [2]: 1 µg/mL (≈ 2.23 µM)

C[C@]1(COc2ccc(-c3cc(-c4cccc(F)c4)on3)cc2)Cn2cc([N+](=O)[O-])nc2O1 [IC8, (R)-2-{4-[5-(3-fluorophenyl)isoxazol-3-yl]phenoxymethyl}-2,3-dihydro-2-methyl-6-nitroimidazo[2,1-b]oxazole]
MIC [1]: 2 µg/mL (≈ 4.58 µM)
MIC [2]: 2 µg/mL (≈ 4.58 µM)

C[C@]1(COc2ccc(-c3cc(-c4ccccn4)on3)cc2)Cn2cc([N+](=O)[O-])nc2O1 [IC9, (R)-2-{4-[5-(pyridin-2-yl)isoxazol-3-yl]phenoxymethyl}-2,3-dihydro-2-methyl-6-nitroimidazo[2,1-b]oxazole]
MIC [1]: 2 µg/mL (≈ 4.77 µM)
MIC [2]: 2 µg/mL (≈ 4.77 µM)

— patent US9845330B2, “6-nitro-2,3-dihydroimidazo[2,1-b]oxazoles and a process for the preparation thereof” (priority 2013, dated 2017)
